# Patent US7101878B1 (Agouron Pharmaceuticals, Inc., priority 1998, dated 2006)
# Target: T1, mouse GnRH receptor (Mus musculus, UniProt Q01776)
# T1 construct: expressed in transfected cells; host or cells: 293 cells
# T1 sequence (Q01776 1-327): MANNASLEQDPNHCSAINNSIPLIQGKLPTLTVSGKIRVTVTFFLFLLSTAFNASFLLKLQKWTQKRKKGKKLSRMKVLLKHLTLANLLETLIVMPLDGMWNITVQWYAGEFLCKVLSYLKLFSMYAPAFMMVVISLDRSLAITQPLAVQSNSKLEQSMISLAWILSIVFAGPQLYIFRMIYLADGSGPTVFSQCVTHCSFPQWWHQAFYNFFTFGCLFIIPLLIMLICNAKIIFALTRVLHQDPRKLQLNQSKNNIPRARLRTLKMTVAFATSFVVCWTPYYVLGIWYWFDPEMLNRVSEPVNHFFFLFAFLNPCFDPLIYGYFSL
# Test: Radioligand binding, 125I-GnRH-A, 293 cells expressing mouse GnRH receptors
# Conditions: 10 uM; read-out: % Inhib. @ 10 uM mGnRH
# How it was run: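 Bound label captured on 0.1% polyethyleneimine-treated GF/C filters, washed three times with PBS, counted. IC50 derived; identical set-up for every species.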
row,SMILES,inhibition at 10 µM
1,Cc1cc2c(cc1Cc1ccc(C(=O)NC(C)CO)o1)C(C)(C)CCC2(C)C (stereo not shown) [drawing 1241],82%
2,CCCCN(CCCC)CCCNC(=O)c1ccc(Cc2cc3c(cc2C)C(C)(C)CCC3(C)C)o1 [drawing 1242],103%
3,Cc1cc2c(cc1Cc1ccc(C(=O)NC3CCN(Cc4ccccc4)C3)o1)C(C)(C)CCC2(C)C (stereo not shown) [drawing 1243],101%
4,CCN(CC)CCCNC(=O)c1ccc(Cc2cc3c(cc2C)C(C)(C)CCC3(C)C)o1 [drawing 1244],100%
5,Cc1cc2c(cc1Cc1ccc(C(=O)N3CCC(n4c(=O)[nH]c5ccccc54)CC3)o1)C(C)(C)CCC2(C)C [drawing 1246],80%

# Same assay, conditions: 1 h, substrate remaining; 10 uM compound; closer to zero = closer to 100% inhibition; read-out: S%R 10 uM mGnRHR
row,SMILES,remaining activity at 10 µM
1,Cc1cc2c(cc1Cc1ccc(C(=O)NC3CCCCC3O)o1)C(C)(C)CCC2(C)C (stereo not shown) [Compound 650],4%
2,Cc1cc2c(cc1Cc1ccc(C(=O)N3CCCC3C(=O)OCc3ccccc3)o1)C(C)(C)CCC2(C)C (stereo not shown) [Compound 651],15%
3,Cc1cc2c(cc1Cc1ccc(C(=O)N3CCC(NC(=O)OC(C)(C)C)C3)o1)C(C)(C)CCC2(C)C (stereo not shown) [Compound 652],19%
4,CCN1CC(N(Cc2ccc(N(C)C)cc2)C(=O)c2ccc(Cc3cc4c(cc3C)C(C)(C)CCC4(C)C)o2)CN1CC [Compound 653],6%
5,Cc1cc2c(cc1Cc1ccc(C(=O)NC(C)(C)CC(C)(C)C)o1)C(C)(C)CCC2(C)C [Compound 654],34%
6,CCSCCNC(=O)c1ccc(Cc2cc3c(cc2C)C(C)(C)CCC3(C)C)o1 [Compound 655],2%
7,Cc1cc2c(cc1Cc1ccc(C(=O)N3CCC(O)(c4ccc(Br)cc4)CC3)o1)C(C)(C)CCC2(C)C [Compound 656],52%
8,Cc1cc2c(cc1Cc1ccc(C(=O)N3CCCC(C)(C)C3)o1)C(C)(C)CCC2(C)C [Compound 657],3%
9,Cc1cc2c(cc1Cc1ccc(C(=O)N3CCN(Cc4ccc(C(C)(C)C)cc4)CC3)o1)C(C)(C)CCC2(C)C [Compound 658],35%
10,Cc1cc2c(cc1Cc1ccc(C(=O)N3CCCC3C)o1)C(C)(C)CCC2(C)C (stereo not shown) [Compound 659],-2%
11,CCN1CC(N(CCC(C)CCCC(C)(C)O)C(=O)c2ccc(Cc3cc4c(cc3C)C(C)(C)CCC4(C)C)o2)CN1CC (stereo not shown) [Compound 660],-4%
12,Cc1cc2c(cc1Cc1ccc(C(=O)N3CCC(NC(=O)C(F)(F)F)C3)o1)C(C)(C)CCC2(C)C (stereo not shown) [Compound 661],41%
13,COC(OC)C(C)NC(=O)c1ccc(Cc2cc3c(cc2C)C(C)(C)CCC3(C)C)o1 (stereo not shown) [Compound 662],3%
14,COc1cccc(N2CCN(C(=O)c3ccc(Cc4cc5c(cc4C)C(C)(C)CCC5(C)C)o3)CC2C)c1 (stereo not shown) [Compound 663],25%
15,CCN(C(=O)c1ccc(Cc2cc3c(cc2C)C(C)(C)CCC3(C)C)o1)C1CCCCC1 [Compound 664],1%
16,Cc1cc2c(cc1Cc1ccc(C(=O)N(Cc3cccnc3)Cc3ccco3)o1)C(C)(C)CCC2(C)C [Compound 665],12%
17,CCC(CC)NC(=O)c1ccc(Cc2cc3c(cc2C)C(C)(C)CCC3(C)C)o1 [Compound 666],24%
18,Cc1cc2c(cc1Cc1ccc(C(=O)N(CCc3ccccc3)Cc3ccoc3)o1)C(C)(C)CCC2(C)C [Compound 667],39%
19,CCN1CC(N(CCC(C)c2ccccc2)C(=O)c2ccc(Cc3cc4c(cc3C)C(C)(C)CCC4(C)C)o2)CN1CC (stereo not shown) [Compound 668],6%
20,CCCOCCNC(=O)c1ccc(Cc2cc3c(cc2C)C(C)(C)CCC3(C)C)o1 [Compound 669],-3%

row,SMILES,remaining activity at 10 µM
1,Cc1cc2c(cc1Cc1ccc(C(=O)N3CCC(n4c(=O)[nH]c5ccccc54)CC3)o1)C(C)(C)CCC2(C)C [Compound 670],16%
2,Cc1cc2c(cc1Cc1ccc(C(=O)NCCC(C)O)o1)C(C)(C)CCC2(C)C (stereo not shown) [Compound 671],12%
3,Cc1cc2c(cc1Cc1ccc(C(=O)N(CCC#N)CCC#N)o1)C(C)(C)CCC2(C)C [Compound 672],23%
4,CCCC(CO)NC(=O)c1ccc(Cc2cc3c(cc2C)C(C)(C)CCC3(C)C)o1 (stereo not shown) [Compound 673],2%
5,COc1ccccc1CN(C(=O)c1ccc(Cc2cc3c(cc2C)C(C)(C)CCC3(C)C)o1)C1CCN(Cc2ccccc2)C1 (stereo not shown) [Compound 674],10%
6,CSCCC(CO)NC(=O)c1ccc(Cc2cc3c(cc2C)C(C)(C)CCC3(C)C)o1 (stereo not shown) [Compound 675],-5%
7,Cc1cc2c(cc1Cc1ccc(C(=O)NCCC3OCCO3)o1)C(C)(C)CCC2(C)C [Compound 676],-4%
8,Cc1cc2c(cc1Cc1ccc(C(=O)N3CCc4ccccc4C3Cc3ccccc3)o1)C(C)(C)CCC2(C)C (stereo not shown) [Compound 677],54%
9,Cc1cc2c(cc1Cc1ccc(C(=O)NCCc3c[nH]c4ccc(O)cc34)o1)C(C)(C)CCC2(C)C [Compound 678],17%
10,CCC(O)CNC(=O)c1ccc(Cc2cc3c(cc2C)C(C)(C)CCC3(C)C)o1 (stereo not shown) [Compound 679],1%
11,CCCCN(C)C(=O)c1ccc(Cc2cc3c(cc2C)C(C)(C)CCC3(C)C)o1 [Compound 680],0%
12,Cc1cc2c(cc1Cc1ccc(C(=O)N(Cc3ccco3)C3CCN(Cc4ccccc4)C3)o1)C(C)(C)CCC2(C)C (stereo not shown) [Compound 681],6%
13,Cc1cc2c(cc1Cc1ccc(C(=O)NCc3cccc(NC(=O)NC(Cc4ccccc4)c4ccccc4)c3)o1)C(C)(C)CCC2(C)C (stereo not shown) [Compound 682],59%
14,CC[C@H](C)C(CO)NC(=O)c1ccc(Cc2cc3c(cc2C)C(C)(C)CCC3(C)C)o1 (stereo partly shown) [Compound 683],23%
15,CCOC(=O)CCNC(=O)c1ccc(Cc2cc3c(cc2C)C(C)(C)CCC3(C)C)o1 [Compound 684],2%
16,Cc1cc2c(cc1Cc1ccc(C(=O)NC(C)CO)o1)C(C)(C)CCC2(C)C (stereo not shown) [Compound 685],19%
17,Cc1cc2c(cc1Cc1ccc(C(=O)N3CCN(CCOCCO)CC3)o1)C(C)(C)CCC2(C)C [Compound 686],37%
18,CCCNC(=O)c1ccc(Cc2cc3c(cc2C)C(C)(C)CCC3(C)C)o1 [Compound 687],7%
19,Cc1cc2c(cc1Cc1ccc(C(=O)N(Cc3cccnc3)Cc3cccn3C)o1)C(C)(C)CCC2(C)C [Compound 688],0%
20,CCOC(CN(CCc1ccccc1)C(=O)c1ccc(Cc2cc3c(cc2C)C(C)(C)CCC3(C)C)o1)OCC [Compound 689],34%

row,SMILES,remaining activity at 10 µM
1,COc1cccc(CN(Cc2cccc(Oc3cccc(C(F)(F)F)c3)c2)C(=O)c2ccc(Cc3cc4c(cc3C)C(C)(C)CCC4(C)C)o2)c1OC [Compound 690],25%
2,Cc1cc2c(cc1Cc1ccc(C(=O)N(Cc3cccnc3)CC3CC=CCC3)o1)C(C)(C)CCC2(C)C (stereo not shown) [Compound 691],7%
3,CCCCN(CCCC)CCCNC(=O)c1ccc(Cc2cc3c(cc2C)C(C)(C)CCC3(C)C)o1 [Compound 692],-2%
4,COc1cc2c(cc1OC)CN(C(=O)c1ccc(Cc3cc4c(cc3C)C(C)(C)CCC4(C)C)o1)CC2 [Compound 693],55%
5,Cc1cc2c(cc1Cc1ccc(C(=O)N3CCN(C(=O)c4ccco4)CC3)o1)C(C)(C)CCC2(C)C [Compound 694],11%
6,CCCCN(C(=O)c1ccc(Cc2cc3c(cc2C)C(C)(C)CCC3(C)C)o1)C(C)c1ccccc1 (stereo not shown) [Compound 695],35%
7,Cc1cc2c(cc1Cc1ccc(C(=O)N(Cc3ccccc3)Cc3ccc(Cl)c(Cl)c3)o1)C(C)(C)CCC2(C)C [Compound 696],21%
8,CCCN(CCc1ccccn1)C(=O)c1ccc(Cc2cc3c(cc2C)C(C)(C)CCC3(C)C)o1 [Compound 697],1%
9,Cc1cc2c(cc1Cc1ccc(C(=O)N3CCC(CNC(=O)C(F)(F)F)CC3)o1)C(C)(C)CCC2(C)C [Compound 698],59%
10,Cc1cc2c(cc1Cc1ccc(C(=O)NC3CCN(Cc4ccccc4)C3)o1)C(C)(C)CCC2(C)C (stereo not shown) [Compound 699],-1%
11,Cc1cc2c(cc1Cc1ccc(C(=O)N(CCCN(C)C)CCCN(C)C)o1)C(C)(C)CCC2(C)C [Compound 700],30%
12,Cc1cc2c(cc1Cc1ccc(C(=O)N3CCN(C4CCCCC4)CC3)o1)C(C)(C)CCC2(C)C [Compound 701],-1%
13,Cc1ccc(N2CCN(C(=O)c3ccc(Cc4cc5c(cc4C)C(C)(C)CCC5(C)C)o3)CC2C)cc1 (stereo not shown) [Compound 702],28%
14,Cc1cc2c(cc1Cc1ccc(C(=O)N(Cc3cccnc3)Cc3ccccc3F)o1)C(C)(C)CCC2(C)C [Compound 703],5%
15,COC(=O)C1CCCN1C(=O)c1ccc(Cc2cc3c(cc2C)C(C)(C)CCC3(C)C)o1 (stereo not shown) [Compound 704],4%
16,Cc1cc2c(cc1Cc1ccc(C(=O)N(CCC#N)Cc3ccco3)o1)C(C)(C)CCC2(C)C [Compound 705],23%
17,Cc1cc2c(cc1Cc1ccc(C(=O)NC(CO)CC(C)C)o1)C(C)(C)CCC2(C)C (stereo not shown) [Compound 706],3%
18,CCN(CC)CCCNC(=O)c1ccc(Cc2cc3c(cc2C)C(C)(C)CCC3(C)C)o1 [Compound 707],0%
19,Cc1cc2c(cc1Cc1ccc(C(=O)N(CCN(C)C)Cc3ccccc3)o1)C(C)(C)CCC2(C)C [Compound 708],-4%
